The text below walks through data of PubChem BioAssay AID248 (DTP/NCI, 2004).

This assay relates to L1210 leukemia ip in BDF1 mice, survival T/C. The experiment in a line: NCI In Vivo Anticancer Drug Screen. Data for tumor model L1210 Leukemia (intraperitoneal) in B6D2F1 (BDF1) mice. As to conditions: endpoint: mean survival time, higher = longer survival. In outline: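 In this screen, tumor-bearing mice given compound are compared to those given vehicle, and their survival values are reported as a treated-to-control quotient.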

Setting [1] is: dose: 100.0 mg/kg/injection, schedule: Q01DX009 (ip), vehicle: saline with Tween-80.
The mark [2] stands for this setting: dose: 200.0 mg/kg/injection, schedule: Q01DX009 (ip), vehicle: saline with Tween-80.
Where [3] appears, read: dose: 100.0 mg/kg/injection, schedule: Q01DX009 (ip), vehicle: Klucel (hydroxypropylcellulose) (HPC).
Where [4] appears, read: dose: 200.0 mg/kg/injection, schedule: Q01DX009 (ip), vehicle: Klucel (hydroxypropylcellulose) (HPC).
[5] abbreviates: dose: 400.0 mg/kg/injection, schedule: Q01DX009 (ip), vehicle: Klucel (hydroxypropylcellulose) (HPC).
[6] abbreviates: dose: 100.0 mg/kg/injection, schedule: Q01DX001 (ip), vehicle: saline.
The mark [7] stands for this setting: dose: 100.0 mg/kg/injection, schedule: Q04DX003 (ip), vehicle: saline.
Setting [8] is: dose: 200.0 mg/kg/injection, schedule: Q01DX001 (ip), vehicle: saline.
Where [9] appears, read: dose: 200.0 mg/kg/injection, schedule: Q04DX003 (ip), vehicle: saline.
[10] abbreviates: dose: 400.0 mg/kg/injection, schedule: Q01DX001 (ip), vehicle: saline.
[11] abbreviates: dose: 400.0 mg/kg/injection, schedule: Q04DX003 (ip), vehicle: saline.
The mark [12] stands for this setting: dose: 150.0 mg/kg/injection, schedule: Q01DX001 (ip), vehicle: carboxymethylcellulose (CMC).

Where “and” joins values, the source holds several entries; their conditions need not be identical. Equal entries are not always repeated. Toxic doses and inconclusive results are not listed.

As for `C#CCNC(=O)NCCCl`, the T/C reads like this: under setting [1], 97 % of control; (dose: 100.0 mg/kg/injection, schedule: Q04DX003 (ip), vehicle: saline with Tween-80) 101 % of control; under setting [2], 99 % of control; (dose: 200.0 mg/kg/injection, schedule: Q04DX003 (ip), vehicle: saline with Tween-80) 104 % of control; (dose: 400.0 mg/kg/injection, schedule: Q01DX009 (ip), vehicle: saline with Tween-80) 97 % of control; (dose: 400.0 mg/kg/injection, schedule: Q04DX003 (ip), vehicle: saline with Tween-80) 101 % of control.

Consider `OC(Cc1ccccc1)(c1ccccc1)c1cccc2ccccc12` (centres undefined), for which the T/C is, setting by setting: under setting [3], 90 % of control; (dose: 100.0 mg/kg/injection, schedule: Q04DX003 (ip), vehicle: Klucel (hydroxypropylcellulose) (HPC)) 100 % of control; under setting [4], 95 % of control; (dose: 200.0 mg/kg/injection, schedule: Q04DX003 (ip), vehicle: Klucel (hydroxypropylcellulose) (HPC)) 109 % of control; under setting [5], 92 % of control; (dose: 400.0 mg/kg/injection, schedule: Q04DX003 (ip), vehicle: Klucel (hydroxypropylcellulose) (HPC)) 97 % of control.

Consider `NC(Cc1cc([N+](=O)[O-])ccc1CN(CCCl)CCCl)C(=O)O` (centres undefined), for which the T/C runs as follows: (dose: 3.6 mg/kg/injection, schedule: Q04DX003 (ip), vehicle: saline) 161 % of control; (dose: 6.0 mg/kg/injection, schedule: Q01DX001 (ip), vehicle: saline) 198 % of control; (dose: 6.0 mg/kg/injection, schedule: Q04DX003 (ip), vehicle: saline) 158 % of control and 315 % of control; (dose: 10.0 mg/kg/injection, schedule: Q01DX001 (ip), vehicle: saline) 173 % of control and 248 % of control; (dose: 10.0 mg/kg/injection, schedule: Q04DX003 (ip), vehicle: saline) 163 % of control and 352 % of control; (dose: 16.7 mg/kg/injection, schedule: Q01DX001 (ip), vehicle: saline) 302 % of control and 309 % of control. Also, the T/C (dose: 16.7 mg/kg/injection, schedule: Q04DX003 (ip), vehicle: saline) is 151 % of control.

With `CCC/C=N/NC(=O)CCCCCCCCCCCCCCCCC`, the T/C under setting [3] is 86 % of control, the T/C under setting [4] was 88 % of control and the T/C under setting [5] was 88 % of control.

Turning to `CCC/C(=N\NC(=O)c1ccc(OC)cc1)c1ccccc1`, the T/C is 94 % of control (dose: 50.0 mg/kg/injection, schedule: Q01DX009 (ip), vehicle: saline with Tween-80); 102 % of control under setting [1]; 94 % of control under setting [2].

For the compound `CC(=O)NC(=O)NC(C)=O`, the T/C runs as follows: under setting [6], 95 % of control; (dose: 100.0 mg/kg/injection, schedule: Q01DX009 (ip), vehicle: saline) 100 % of control; under setting [7], 99 % of control; under setting [8], 94 % of control; (dose: 200.0 mg/kg/injection, schedule: Q01DX009 (ip), vehicle: saline) 105 % of control; under setting [9], 97 % of control. Besides, the T/C reads like this: under setting [10], 97 % of control; (dose: 400.0 mg/kg/injection, schedule: Q01DX009 (ip), vehicle: saline) 95 % of control; under setting [11], 100 % of control.

For `CC(Cl)C(=O)OC(C)(C)Cl` (centres undefined), the T/C was 104 % of control (dose: 75.0 mg/kg/injection, schedule: Q01DX001 (ip), vehicle: carboxymethylcellulose (CMC)) and 107 % of control under setting [12].

On to `CC(C)(C)CC(=O)CC(C)(C)C`, for which the T/C reads like this: under setting [6], 98 % of control; under setting [8], 87 % of control; under setting [10], 98 % of control.

For the compound `COP(=O)(O)NC(C)=O`, the T/C was 105 % of control (dose: 100.0 mg/kg/injection, schedule: Q04DX002 (ip), vehicle: saline); 108 % of control (dose: 200.0 mg/kg/injection, schedule: Q04DX002 (ip), vehicle: saline); 91 % of control (dose: 400.0 mg/kg/injection, schedule: Q04DX002 (ip), vehicle: saline).

Consider `CCC[As](=O)(O)CC[As](=O)(O)CCC`, for which the T/C reads like this: (dose: 100.0 mg/kg/injection, schedule: Q01DX001 (ip), vehicle: saline with Tween-80) 104 % of control; (dose: 200.0 mg/kg/injection, schedule: Q01DX001 (ip), vehicle: saline with Tween-80) 112 % of control; (dose: 400.0 mg/kg/injection, schedule: Q01DX001 (ip), vehicle: saline with Tween-80) 96 % of control.

In the case of `CCOC(=O)c1ccc(NC(=S)NC(=O)c2cccc3ccccc23)cc1`, the T/C runs as follows: (dose: 100.0 mg/kg/injection, schedule: Q04DX002 (ip), vehicle: other) 91 % of control and 92 % of control; (dose: 200.0 mg/kg/injection, schedule: Q04DX002 (ip), vehicle: other) 97 % of control and 91 % of control; (dose: 400.0 mg/kg/injection, schedule: Q04DX002 (ip), vehicle: other) 102 % of control and 91 % of control.

For `Oc1ccc(Sc2ccc(O)cc2)cc1`, the T/C under setting [7] is 101 % of control and the T/C under setting [9] is 92 % of control.

For the compound `CC(/C=C/c1ccc(O)cc1)=N\O`, the T/C is, setting by setting: under setting [1], 89 % of control; under setting [2], 100 % of control.

On to `O=[N+]([O-])c1ccc(CS(=O)(=O)Cc2ccc([N+](=O)[O-])cc2)cc1`, for which the T/C by setting is: under setting [12], 93 % of control; (dose: 300.0 mg/kg/injection, schedule: Q01DX001 (ip), vehicle: carboxymethylcellulose (CMC)) 89 % of control.

As to `[NH-]CC(=O)[N-]CC(=O)O.[NH-]CC(=O)[N-]CC(=O)O.[Ni]`, the T/C is, setting by setting: (dose: 25.0 mg/kg/injection, schedule: Q01DX009 (ip), vehicle: saline) 86 % of control; (dose: 25.0 mg/kg/injection, schedule: Q04DX003 (ip), vehicle: saline) 107 % of control; (dose: 50.0 mg/kg/injection, schedule: Q04DX003 (ip), vehicle: saline) 116 % of control; under setting [7], 98 % of control and 92 % of control.

`O=C1c2cscc2C(=O)c2c(Cl)sc(Cl)c21`: the T/C (dose: 100.0 mg/kg/injection, schedule: Q04DX003 (ip), vehicle: acetone) is 102 % of control.

For `CC(=O)[O][Hg][CH]1CCC2OC1CC[CH]2[Hg][O]C(C)=O` (centres undefined), the T/C (dose: 12.5 mg/kg/injection, schedule: Q01DX009 (ip), vehicle: Klucel (hydroxypropylcellulose) (HPC)) is 97 % of control; the T/C (dose: 25.0 mg/kg/injection, schedule: Q01DX009 (ip), vehicle: Klucel (hydroxypropylcellulose) (HPC)) is 94 % of control; the T/C (dose: 25.0 mg/kg/injection, schedule: Q04DX003 (ip), vehicle: Klucel (hydroxypropylcellulose) (HPC)) was 91 % of control; the T/C (dose: 50.0 mg/kg/injection, schedule: Q01DX009 (ip), vehicle: Klucel (hydroxypropylcellulose) (HPC)) is 96 % of control; the T/C (dose: 50.0 mg/kg/injection, schedule: Q04DX003 (ip), vehicle: Klucel (hydroxypropylcellulose) (HPC)) was 98 % of control.

Regarding `CC(OC(=O)c1ccccc1O)c1ccccc1` (centres undefined), the T/C was 96 % of control under setting [7], 96 % of control under setting [9] and 100 % of control under setting [11].

As for `O=C(O)C(Cl)C(C(=O)O)c1ccccc1` (centres undefined), the T/C reads like this: (dose: 100.0 mg/kg/injection, schedule: Q04DX002 (ip), vehicle: saline with Tween-80) 101 % of control; (dose: 200.0 mg/kg/injection, schedule: Q04DX002 (ip), vehicle: saline with Tween-80) 93 % of control; (dose: 400.0 mg/kg/injection, schedule: Q04DX002 (ip), vehicle: saline with Tween-80) 93 % of control.

For the compound `CN(C)Cc1c(C(O)(c2ccccc2)c2ccccc2)ccc2ccccc12`, the T/C is, setting by setting: (dose: 50.0 mg/kg/injection, schedule: Q01DX001 (ip), vehicle: carboxymethylcellulose (CMC)) 90 % of control; (dose: 100.0 mg/kg/injection, schedule: Q01DX001 (ip), vehicle: carboxymethylcellulose (CMC)) 100 % of control; (dose: 200.0 mg/kg/injection, schedule: Q01DX001 (ip), vehicle: carboxymethylcellulose (CMC)) 96 % of control; (dose: 400.0 mg/kg/injection, schedule: Q01DX001 (ip), vehicle: carboxymethylcellulose (CMC)) 90 % of control.
